US8703751B2, “Androstenediol as an indicator for assessing estrogenicity” (The Regents of the University of California, priority 2009, dated 2014)
Entries after “also recorded” stand apart in the source; their conditions may differ.

What was measured:
estrogen-alpha receptor = molecular target: T1, estrogen-alpha receptor (Homo sapiens, UniProt P03372); assay: cell-based estrogen receptor bioassay (BG1 cells, luciferase reporter under four estrogen-response elements) for estrogenicity; conditions: for inherent estrogenic bioactivity (estrogenicity): at physiological circulating concentrations, FIG. 5 dose-response curves
T1 construct: human ovarian carcinoma cells (BG1) that have been stably transfected with a luciferase reporter gene plasmid; endogenous in cells; host or cells: BG1 human ovarian carcinoma cells stably transfected with an ERE-luciferase reporter plasmid
T1 sequence (P03372 whole entry): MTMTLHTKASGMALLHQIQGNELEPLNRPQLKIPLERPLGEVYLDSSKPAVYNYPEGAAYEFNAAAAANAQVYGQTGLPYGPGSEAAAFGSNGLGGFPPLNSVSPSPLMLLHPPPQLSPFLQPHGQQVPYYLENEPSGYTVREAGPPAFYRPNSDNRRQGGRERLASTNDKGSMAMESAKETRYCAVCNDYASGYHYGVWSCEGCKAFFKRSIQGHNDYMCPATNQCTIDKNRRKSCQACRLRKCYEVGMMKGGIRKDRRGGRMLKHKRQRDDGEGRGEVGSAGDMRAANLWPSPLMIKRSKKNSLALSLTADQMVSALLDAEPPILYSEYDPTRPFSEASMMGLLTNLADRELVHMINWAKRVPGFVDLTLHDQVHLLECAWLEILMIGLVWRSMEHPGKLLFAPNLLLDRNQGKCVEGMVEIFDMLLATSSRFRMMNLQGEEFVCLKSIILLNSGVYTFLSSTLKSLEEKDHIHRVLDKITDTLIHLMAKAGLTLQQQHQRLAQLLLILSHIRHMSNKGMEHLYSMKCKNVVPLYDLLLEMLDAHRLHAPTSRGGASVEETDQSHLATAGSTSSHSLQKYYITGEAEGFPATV
Excerpt: The total estrogen receptor ligand load (ERLL) can be determined using any method known in the art. The ERLL provides an estimate of the combined biological potential of the estrogen-alpha receptor ligand load contained in the sample. […] Other cell lines can find use. […] The detectable signal of any reporter gene known in the art can be used, including without limitation luciferase and fluorescent proteins (e.g., green fluorescent protein, yellow fluorescent protein, blue fluorescent protein, red fluorescent protein, etc.). In the case where […] is used as the reporter gene, […] substrate is added to the culture and the luciferase activity induced by the standards and/or test sample are measured using a Luminometer.
This assay assesses the total estrogenic bioactivity contained in a serum sample. Thus and estimate of the combined biological potential of the estrogen-alpha receptor ligand load (ERLL) contained in the sample. Thus the bioactivity of a sample will be appropriately estimated. Briefly, human ovarian carcinoma cells (BG1) that have been stably transfected with a luciferase reporter gene plasmid under the regulation of four estrogen-response elements were used to measure total bioactive estrogens. BG1 cells were cultured in Alpha Minimum Essential Medium (Alpha-MEM) with 10% fetal bovine serum (FBS). When cells reached 80% confluence, cells were trypsinized (0.05% trypsin-EDTA) and well dispersed in phenol-red free Dulbecco's […] (DMEM) supplemented with 10% dextran charcoal treated FBS (DCC-FBS). Suspended cells (0.05 mL/well; density of 25,000 cells/0.05 mL) were added to 96-well tissue culture plates containing 0.15 mL/well of phenol-red free DMEM supplemented with 10% DCC-FBS. On each of the two subsequent days (Days 2 and 3), the media in each well was removed and replaced with 0.2 mL phenol-red free DMEM supplemented with 10% DCC-FBS. […] To compensate for any serum matrix effects, DCC-FBS was added to the E2 standard preparation at a proportion equal to that of the serum content of the sample preparation (5% v/v). Serum samples were diluted in DCC-FBS with a final serum content of 5% (v/v). Plates were then incubated for an additional 18 hours. Media was then removed and 0.1 mL cell lysis buffer added to each well and allowed to incubate for 20 minutes. Cell lysates (0.04 mL) were transferred to 96-well Microfluor II plates (Fisher Scientific, Santa Clara, Calif.). Luciferin substrate was injected into each well and the luciferase activity induced by the standards and/or test serum was measured by a Veritas Luminometer (Turner Biosystems, Sunnyvale, Calif., USA).
The third element for developing the concept was that of gaining additional insight into the innate properties of all of the adrenal steroids that were associated with the rise of DS during the menopausal transition. For these investigations newly developed in vitro bioassays were used to adjudicate the estrogenicity of all for adrenal steroids (i.e., T, A-dione, 5A-diol and DHEA).

[1] = cited from earlier work
[2] = 25 mg oral dose for three months; from 0.32 ng/mL before (doubling); cited from earlier work
[3] = local, intravaginal suppository; cited from earlier work
[4] = transdermal administration; 60-65 year old women; cited from earlier work
[5] = oral 50 mg/day for one year, women over 70 years old

In the case of C[C@]12CC[C@H]3[C@@H](CC=C4C[C@@H](O)CC[C@@]43C)[C@@H]1CC[C@@H]2O [5A-diol, (3-beta,17-beta)-Androst-5-ene-3,17-diol], the “estrogenic or not (discussion statement)” value (estrogen-alpha receptor) is reported as “is estrogenic”, the “inherent estrogenic bioactivity (estrogenicity)” value (“inherent estrogenic bioactivity” below) (estrogen-alpha receptor) is reported as “substantial inherent estrogenic bioactivity” and the “inherent estrogenic bioactivity” value (estrogen-alpha receptor; listed as androstenediol) is reported as “significant “estrogenicity” at physiological levels”.

For C[C@]12CCC(=O)C=C1CC[C@@H]1[C@@H]2CC[C@]2(C)C(=O)CC[C@@H]12 [A-dione, androstendione], the “inherent estrogenic bioactivity” value (estrogen-alpha receptor) was “only 5A-diol and estradiol had substantial inherent estrogenic bioactivity”.

In the case of C[C@]12CC[C@H](O)CC1=CC[C@@H]1[C@@H]2CC[C@]2(C)C(=O)CC[C@@H]12 [DHEA, dehydroepiandrosterone], the “BMD and bone resorption” value ([1]; 50 mg daily oral, adults 55-85 years of age, in women but not men) is listed as “only modest effect”, the muscle status ([1]; 50 mg/day oral, one year, men and women between 60 and 80 years of age) is listed as “no positive effect” and the bone turnover [1, 5] is listed as “modestly decrease”. For the same compound, the libido [1, 5] was “increase”, the skin hydration [1, 5] was “improve” and the “estrogenic or not (discussion statement)” value (estrogen-alpha receptor) was “not estrogenic”. The “inherent estrogenic bioactivity” value (estrogen-alpha receptor) was “only 5A-diol and estradiol had substantial inherent estrogenic bioactivity; also recorded: does not”, the “circulating concentration of A-diol after treatment” value [2] was 0.66 ng/mL and the age-related vaginal atrophy [3] was “highly efficient treatment”. For the same compound, the “change in circulating sex steroid concentrations” value [3] was “no significant change”, the “increase in circulating DS” value [4] was “five fold increase” and the “increase in circulating androstendiol glucuronides” value [4] was “less than a two and one-half fold increase”.

With C[C@]12CC[C@H]3[C@@H](CCC4=CC(=O)CC[C@@]43C)[C@@H]1CC[C@@H]2O [T, testosterone] the “inherent estrogenic bioactivity” value (estrogen-alpha receptor) was “only 5A-diol and estradiol had substantial inherent estrogenic bioactivity”.
